2 compounds from US20230158057A1, “COMPOSITIONS AND METHODS FOR THE TREATMENT OF PAIN” (Duke University, priority 2020, published 2023) can be followed below.

“Also recorded” adds a separate entry of the source.

Data set [1] has as its system IFN-α. Put plainly: IFN-α ELISA in serum and bone marrow lysate after i.p. STING agonist, LLC model. It is filed as in vivo, mouse. As to conditions: for increase of serum levels of IFN-α: 4 h after a single i.p. injection 20 mg/kg on d3, vs vehicle; for IFN-α in bone marrow (BM) lysate: 4 h after i.p., d3. As for the experimental part:
(§1) ELISA. Mouse high-sensitivity IFN-α ELISA kit (42115-1) and IFN-β ELISA kit (42410-1) were purchased from PBL Assay Science. Mouse CTX-I ELISA kit (AC-06F1) and mouse PINP ELISA kit (AC-33F1) were purchased from Immunodiagnostic Systems. ELISA was performed using culture medium, serum, and bone marrow lysates. Serum was obtained from whole blood that was collected from a submandibular vein via facial vein puncture, coagulated for 30 minutes at room temperature, followed by centrifugation (2,000 ×g for 10 min, 4° C.) and collection of the supernatant (serum). Bone marrow was homogenized in a lysis buffer containing protease inhibitors at 4° C. for 30 minutes. ELISA was conducted in accordance with the manufacturer's instructions. A standard curve was performed for each experiment.

The subject of data set [2] is mice with CIPN. Put plainly: Chemotherapy-induced peripheral neuropathy (CIPN) model established with paclitaxel. Type of data set: in vivo, mouse. As to conditions: i.p., 24 h after the 2nd injection. As to the method:
Mouse pain models: The chemotherapy-induced peripheral neuropathy (CIPN) model of chronic neuropathic pain was established as we have done previously, using 8-10-week-old CD-1 (strain #022, Charles River) mice injected with paclitaxel (2 mg/kg i.p.) every other day, with 4 injections total. The chronic constriction injury (CCI) model of neuropathic pain was also produced using 8-10-week-old CD-1 under isoflurane anesthesia. Briefly, the right sciatic nerve was exposed above the hip and two ligatures (7-0 Prolene) were placed around the nerve 1 mm apart located proximal to the trifurcation. Ligatures were loosely tied until a subtle flick of the ipsilateral hind limb was observed. CD-1 mice were also used to establish the SNI model, which was generated by tightly ligating the tibial and common peroneal nerves followed by transection and removal of a ˜3 mm portion of the nerve. […] All mice were housed and monitored in accordance with AAALAC standards and Duke IACUC guidelines that pertained to each model.
Reflexive-based sensory testing in mice: All behavioral testing in mice was performed in a specialized humidity- and light-controlled mouse behavior facility maintained at 21-24° C., with testing conducted between the hours of 8:00-16:00. […] We determined the 50% paw withdrawal threshold using the up-down method. […]

The subject of data set [3] is IFN-β. Put plainly: IFN-β ELISA on BMDM culture medium. Type of data set: cell-based, mouse. As to conditions: 24 h after incubation; IFN-β induction much greater. As for the experimental part:
as §1
In vitro induction of osteoclastogenesis and TRAP staining. For in vitro drug treatment, the RAW 264.7 cells were incubated with 35 ng/ml RANKL for six days. Isolated bone marrow cells were cultured overnight in α-MEM media containing 10% fetal bovine serum and 1% antibiotic-antimycotic solution. The suspended cells were collected and incubated with 20 ng/ml MCSF for 3 days to obtain bone marrow-derived macrophage (BMDM). The attached cells were further activated by 35 ng/ml RANKL and 20 ng/ml MCSF. Drug treatment was performed in tandem with RANKL. Culture medium and co-cultured reagents were changed every 3 days. […]

The subject of data set [4] is mice with intrafemoral Lewis lung carcinoma (LLC). Description: LLC bone cancer pain model, systemic (i.p.) treatment, behavior tests and body weight. It is filed as in vivo, mouse. As to conditions: for spontaneous and ongoing pain (flinching, guarding): d14; for body weight / cancer-induced cold allodynia / cancer-induced mechanical allodynia (paw withdrawal threshold): twice i.p.; for cancer-induced mechanical allodynia (paw withdrawal threshold): DMXAA, ADU-S100 20 mg/kg, ZA 100 μg/kg; for acute effect on bone cancer pain: d11, 4 h after single i.p. injection. As for the experimental part:
Bone cancer pain model. The murine cell lines LLC1, LL/2-Luc2 or E0771 were lightly digested using 0.05% trypsin, followed by centrifugation to remove poorly digested cell clusters. Cells were then resuspended in PBS at a concentration of 1×10^8 cells/ml. The inoculation was performed as previously described (Wang, K. et al. “PD-1 blockade inhibits osteoclast formation and murine bone cancer pain.” The Journal of clinical investigation, (2020); Wang, Z. et al. “Anti-PD-1 treatment impairs opioid antinociception in rodents and nonhuman primates.” Sci Transl Med 12 (2020)). Briefly, mice were anesthetized with 4% isoflurane and the left leg was shaved and the skin disinfected with 10% povidone-iodine and 75% ethanol. A superficial incision (0.5-1 cm) was made near the knee joint, exposing the patellar ligament. […] The syringe contents were slowly injected into the femoral cavity over a 2-minute interval. To prevent further leakage of tumor cells outside of the bone cavity, the outer injection site was sealed with silicone adhesive (Kwik-Sil, World Precision Instruments, US). Animals with surgery related movement dysfunction or with outside bone tumor injection were excluded from the study. Drug treatment. […] All other reagents were dissolved in sterile saline or PBS. For experiments utilizing rabbit anti-IFN-α or -β neutralizing antibodies, a polyclonal rabbit IgG antibody served as the control. […] Behavior tests. All the behavioral tests were conducted in a blinded manner and performed during between the hours of 9:00-16:00. Animals were habituated in a light and humidity controlled testing environment for at least 2 days prior to baseline testing. For Von Frey testing, mice were confined to individual 5×5 cm boxes placed on an elevated wire grid. A blinded experimenter stimulated their hindpaws using a series of von Frey filaments with logarithmically increasing stiffness (0.02-2.56 g, Stoelting). Each filament was applied perpendicularly to the central plantar surface. The 50% paw withdrawal threshold was determined using Dixon's up-down method.

Take `Nc1ncnc2c1ncn2[C@@H]1O[C@@H]2COP(=O)([S-])O[C@@H]3[C@H](O)[C@@H](COP([O-])(=S)O[C@H]2[C@H]1O)O[C@H]3n1cnc2c(N)ncnc21.[Na+].[Na+]` (stereo partly drawn) [ADU-S100, (2′-5′)-[P(R)]-5′-O-[(R)-hydroxymercaptophosphinyl]-P-thioadenylyl-adenosine cyclic dinucleotide]: in data set [1], the “increase of serum levels of IFN-α” value is reported as “approximately 1000 fold” and the “IFN-α in bone marrow (BM) lysate” value is listed as “sharply increased”. Also, the “deaths (toxicity with systemic administration)” value in data set [2] was “No mice died”. For the same compound, the “IFN-β levels in the culture medium” value in data set [3] is “drastic increase in IFN-α and IFN-β levels”. For the same compound, in data set [4] (LLC model), the “spontaneous and ongoing pain (flinching, guarding)” value was “exhibited reduced spontaneous and ongoing pain”; the body weight entry was “no effect on overall body weight”; the cancer-induced cold allodynia entry is “reduced cold allodynia on both d10 and d14”; the “cancer-induced mechanical allodynia (paw withdrawal threshold)” value is “could significantly attenuate mechanical allodynia in both measures on d10 and d14”. For the same compound, the “withdrawal frequency to low-threshold stimulation (0.16 g Von Frey filament)” value in data set [4] (LLC model, i.p. at d3 and d10) was “could significantly attenuate mechanical allodynia in both measures on d10 and d14”. In addition, the “acute effect on bone cancer pain” value in data set [4] is “substantial reduction in mechanical allodynia, cold allodynia, and spontaneous pain”.
As for `Cc1ccc2c(=O)c3cccc(CC(=O)O)c3oc2c1C` [DMXAA, 2-(5,6-dimethyl-9-oxo-9H-xanthen-4-yl)acetic acid], in data set [1], the “increase of serum levels of IFN-α” value was “approximately 1000 fold” and the “IFN-α in bone marrow (BM) lysate” value was “sharply increased”. Also, the “deaths (toxicity with systemic administration)” value in data set [2] is 3 mice. Besides, the “IFN-β levels in the culture medium” value in data set [3] is “drastic increase in IFN-α and IFN-β levels”. Moreover, in data set [4] (20 mg/kg i.p. d3 and d7), the “mechanical and cold allodynia, WT and Rag1^−/−” value was “reduced by DMXAA treatment in both WT and Rag1^−/− mice at early stages (7 d and 10 d), but not at later stages”; the “mechanical and cold allodynia, WT vs Ifnar1^−/−” value is “effectively attenuated cancer-induced mechanical allodynia and cold allodynia in WT mice but not Ifnar1^−/− mice”; the “mechanical and cold allodynia, WT vs STING^gt/gt” value was “significantly attenuated mechanical and cold allodynia in WT mice, and this effect was abolished in STING^gt/gt mice”; the “mechanical or cold allodynia in Batf3^−/− mice” value was “could attenuate mechanical allodynia or cold allodynia in Batf3^−/− mice on d7 and d10 but not day 14”. Besides, in data set [4] (20 mg/kg i.p., 4 h), the “acute effect on mechanical and cold allodynia, WT vs STING^gt/gt or Ifnar1^−/−” value was “could reduce mechanical allodynia and cold allodynia in WT mice but not in STING^gt/gt mice or Ifnar1^−/− mice”. In addition, in data set [4] (LLC model), the “spontaneous and ongoing pain (flinching, guarding)” value is “attenuated measures of spontaneous and ongoing pain”; the body weight result is reported as “no differences in body weight; also recorded: did not see body weight changes”; the cancer-induced cold allodynia result is recorded as “significantly reduced”; the “cancer-induced mechanical allodynia (paw withdrawal threshold)” value is “significantly reduced mechanical allodynia on d7, d10 and d14”. For the same compound, in data set [4], the “acute effect on bone cancer pain” value was “substantial reduction in mechanical allodynia, cold allodynia, and spontaneous pain”. Also, the “acute antinociceptive effects, WT vs Ifnar1-cKO” value in data set [4] (single 20 mg/kg i.p.) is given as “present in WT, but not Ifnar1-cKO littermates”.
